LC retention time data for 57 compounds are collected here from the RepoRT retention time repository.

The nature of the series: RP, Waters ACQUITY Premier BEH C18, 100 × 2.1 mm, 1.7 µm, 40 °C, 0.3 to 0.4 mL/min, estimated dead time 0.73 min; A: water + 0.1% formic acid; B: acetonitrile + 0.1% formic acid; gradient (min/%B) 0/0.5 0.1/0.5 10/80 10.1/99.5 12/0.5 12.1/0.5 14.5/0.5. To be noted: stereoisomer not certain.
For `O=C(O)c1ccc2ccccc2c1O` [1-HYDROXY-2-NAPHTHOATE], the LC retention time was 7.32 min. The same measure for `C[Se]CCC(N)C(=O)O` (configuration not stated) [SELENOMETHIONINE]: 1.09 min; for `CCC(CO)C(=O)O` (configuration not stated) [2-ETHYLHYDRACRYLIC ACID]: 3.81 min. On to `CC(CCC(=O)NCC(=O)O)C1CCC2C3C(O)CC4CC(O)CCC4(C)C3CC(O)C12C` (configuration not stated) [GLYCOCHOLATE], for which the LC retention time was 6.68 min. The same measure for `CC12CCC(=O)C=C1CCC1C2C(=O)CC2(C)C1CCC2(O)C(=O)CO` (configuration not stated) [CORTISONE]: 6.12 min; for `O=C(O)CCc1c[nH]c2ccccc12` [INDOLE-3-PROPIONIC ACID]: 6.22 min. Turning to `CCCCCC=CCC=CCC=CCC=CCCCC(=O)O` [ARACHIDONIC ACID], the LC retention time is 9 min.

Consider `CC(CCC(=O)O)C(=O)O` (configuration not stated) [2-METHYLGLUTARATE], for which the LC retention time was 4.07 min. The same measure for `CS(=O)CCCCN=C=S` (configuration not stated) [SULFORAPHANE]: 4.72 min; for `NC(CCC(=O)NC(Cc1ccccc1)C(=O)O)C(=O)O` (configuration not stated) [GAMMA-GLUTAMYLPHENYLALANINE]: 3.65 min. The same measure for `CC1(C)OC2CC(=O)OCC23C1CC(=O)C1(C)C3CCC2(C)C(c3ccoc3)OC(=O)C3OC321` (configuration not stated) [LIMONIN]: 6.87 min; for `O=C1c2c(O)cc(O)cc2OCC1c1ccc(O)cc1` (configuration not stated) [DIHYDROGENISTEIN]: 5.97 min. Take `O=c1ccn(C2CC(O)C(COP(=O)(O)O)O2)c(=O)[nH]1` (configuration not stated) [DEOXYURIDINE-MONOPHOSPHATE]: the LC retention time is 1.7 min.

As for `CC1C(=O)OC2CC34C5CC(C(C)(C)C)C36C(OC(=O)C6O)OC4(C(=O)O5)C21O` (configuration not stated) [GINKGOLIDE A], the LC retention time was 5.66 min. The same measure for `NC(Cc1c[nH]c2ccc(O)cc12)C(=O)O` (configuration not stated) [5-HYDROXYTRYPTOPHAN]: 3.46 min; for `O=c1c(-c2ccc(O)cc2)coc2c(C3OC(CO)C(O)C(O)C3O)c(O)ccc12` (configuration not stated) [PUERARIN]: 3.76 min; for `CC(CC(=O)O)C(=O)O` (configuration not stated) [METHYLSUCCINIC ACID]: 3.75 min. Take `CC(CCC(=O)NCCS(=O)(=O)O)C1CCC2C3C(O)CC4CC(O)CCC4(C)C3CC(O)C12C` (configuration not stated) [TAUROCHOLIC ACID]: the LC retention time is 5.85 min.

Take `Nc1ccccc1C(=O)CC(N)C(=O)O` (configuration not stated) [KYNURENINE]: the LC retention time is 3.62 min. In the case of `CCCCCCCCCC(=O)OCC(COP(=O)([O-])OCC[N+](C)(C)C)OC(=O)CCCCCCCCC` (configuration not stated) [DIDECANOYL-GLYCEROPHOSPHOCHOLINE], the LC retention time is 8.51 min.

Consider `CC(CCC(=O)O)C1CCC2C3CCC4CC(O)CCC4(C)C3CC(O)C12C` (configuration not stated) [DEOXYCHOLATE], for which the LC retention time is 7.67 min. For the compound `O=C(O)CCC(=O)O` [SUCCINATE], the LC retention time was 1.76 min. The same measure for `Nc1nc2ncc(CNc3ccc(C(=O)NC(CCC(=O)O)C(=O)O)cc3)nc2c(=O)[nH]1` (configuration not stated) [FOLATE]: 4.02 min; for `CC1OC(OCC2OC(Oc3c(-c4ccc(O)c(O)c4)oc4cc(O)cc(O)c4c3=O)C(O)C(O)C2O)C(O)C(O)C1O` (configuration not stated) [RUTIN]: 4.25 min; for `O=C(O)CCc1ccccc1O` [3-(2-HYDROXYPHENYL)PROPANOATE]: 5.47 min. In the case of `CC1OC(OC2C(Oc3cc(O)c4c(c3)OC(c3ccc(O)cc3)CC4=O)OC(CO)C(O)C2O)C(O)C(O)C1O` (configuration not stated) [NARINGIN], the LC retention time is 4.7 min. As for `N[C@@H](Cc1cc(I)c(O)c(I)c1)C(=O)O` [3,5-DIIODO-L-TYROSINE], the figure is 4.59 min; as for `CCOC(=O)Cc1c[nH]c2ccccc12` [ETHYL 3-INDOLEACETATE], 7.2 min. As for `COC(=O)C1=CCCN(C)C1` [ARECOLINE], the figure is 1.02 min.

For the compound `Cn1c(=O)[nH]c(=O)c2c1[nH]c(=O)n2C` [3,7-DIMETHYLURIC ACID], the LC retention time was 1.28 min. The same measure for `O=C(O)CP(=O)(O)O` [PHOSPHONOACETATE]: 0.959 min; for `O=C(O)CNC(=O)Cc1ccccc1` [PHENYLACETYLGLYCINE]: 4.21 min. The same measure for `CCCCCCCCCCCCCCCC(O)C(N)CO` (configuration not stated) [SPHINGANINE]: 7.51 min. As for `CSCC[C@H](NC=O)C(=O)O` [N-FORMYL-L-METHIONINE], the figure is 4.06 min. With `CC(=O)NC(Cc1c[nH]c2ccccc12)C(=O)O` (configuration not stated) [N-ACETYLTRYPTOPHAN], the LC retention time is 5.31 min. Consider `C=CC1CN2CCC1CC2C(O)c1ccnc2ccc(OC)cc12` (configuration not stated) [QUININE], for which the LC retention time is 3.88 min. The same measure for `CC1OC(Oc2c(-c3ccc(O)c(O)c3)oc3cc(O)cc(O)c3c2=O)C(O)C(O)C1O` (configuration not stated) [QUERCITRIN]: 4.68 min; for `CC1(C(=O)O)CCC2(C)CCC3(C)C(=CC(=O)C4C5(C)CCC(O)C(C)(C)C5CCC43C)C2C1` (configuration not stated) [GLYCYRRHETINIC ACID]: 8.08 min; for `Cn1c(=O)c2c(ncn2C)n(C)c1=O` [CAFFEINE]: 4.3 min. Regarding `CC1C(=O)OC2C(O)C34C5CC(C(C)(C)C)C36C(OC(=O)C6O)OC4(C(=O)O5)C12O` (configuration not stated) [GINKGOLIDE B], the LC retention time is 5.64 min. Regarding `CCC(O)C(=O)O` (configuration not stated) [2-HYDROXYBUTYRATE], the LC retention time is 2.82 min. As for `CC(CCC(=O)NCC(=O)O)C1CCC2C3CCC4CC(O)CCC4(C)C3CCC12C` (configuration not stated) [LITHOCHOLIC ACID GLYCINE CONJUGATE], the figure is 7.62 min; as for `COc1ccc(-c2cc(=O)c3c(OC)c(OC)c(OC)c(OC)c3o2)cc1OC` [NOBILETIN], 6.99 min; as for `CC(=O)NC(CCC(=O)O)C(=O)O` (configuration not stated) [N-ACETYLGLUTAMATE], 2.2 min. As for `Nc1nc2c(ncn2C2OC(COP(=O)(O)OP(=O)(O)OC3OC(CO)C(O)C(O)C3O)C(O)C2O)c(=O)[nH]1` (configuration not stated) [GUANOSINE DIPHOSPHATE MANNOSE], the figure is 1.37 min. Take `CCCCCCCCC=CCCCCCCCC(=O)OCC(O)CO` (configuration not stated) [OLEOYL-GLYCEROL]: the LC retention time is 9.52 min. In the case of `O=C(O)c1ccccc1` [BENZOATE], the LC retention time was 4.51 min.

Regarding `O=C(O)c1c[nH]c(=O)[nH]c1=O` [URACIL 5-CARBOXYLATE], the LC retention time is 1.91 min. As for `CCCCCCC=CCCCCCCCC(=O)O` [PALMITOLEIC ACID], the figure is 8.15 min; as for `NCCc1c[nH]c2ccccc12` [TRYPTAMINE], 4.34 min; as for `O=C(O)c1cc(=O)c2ccccc2[nH]1` [KYNURENATE], 4.18 min. In the case of `O=C(O)c1cc(=O)[nH]c(=O)[nH]1` [OROTATE], the LC retention time is 1.19 min. With `Cn1cnc2c(ncn2C2OC(CO)C(O)C2O)c1=N` (configuration not stated) [1-METHYLADENOSINE], the LC retention time was 2.05 min. For the compound `O=C(O)CCCC(=O)O` [GLUTARATE], the LC retention time was 3.5 min. As for `CNC(=O)c1cccnc1` [N-METHYLNICOTINAMIDE], the figure is 1.05 min. The same measure for `CCCCCC(=O)NCC(=O)O` [HEXANOYLGLYCINE]: 5.2 min; for `O=C(C=Cc1ccc(O)c(O)c1)OC1CC(O)(C(=O)O)CC(O)C1OC(=O)C=Cc1ccc(O)c(O)c1` (configuration not stated) [4,5-DI-O-CAFFEOYLQUINIC ACID]: 4.78 min.
